Reference: article PMC11876601 (Molecular Systems Biology, 2025)
Read-outs that look alike come from different tables or passages of the source. Blank lines part the entries; values can stand above or below the molecule they belong to.

Tested on: AsPC-1 cells
Assay: Drug combination viability screen (ATPlite, 72 h);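 as to AUC: area under vehicle-normalized viability curve scaled 0 to 100 percent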;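 as to Curve bottom: fraction of vehicle control viability from four-parameter log-logistic fit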
Format: cell-based, human
Parameters: key to AUC: AUC of dose-response curve; AUC∆ = AUChypothetical − AUCexperimental; Curve top / Curve bottom / Curve effect size: scale not given here
Settings: for EC50: Homo sapiens; for Library drug only (ratio): cell viability (library drug/vehicle); for Library drug + GEM low (ratio) / Library drug + GEM high (ratio): cell viability vs vehicle; for Bliss_Library drug + GEM low (ratio) / Bliss_Library drug + GEM high (ratio): hypothetical viability, Bliss model
Procedure: Cell viability was assessed by measuring ATP levels to indicate metabolic activity.
Afterward, small amounts were transferred to 384-well intermediate plates (Greiner Bio-One GmbH, Germany). […] For drug combination screening, 1000 to 5000 cells were seeded into 384-well plates (CulturPlate™, Perkin Elmer, MA, USA) using a Multidrop™ Combi Reagent Dispenser (Thermo Scientific, MA, USA) in 50 µl medium per well 24 h prior to drug treatment (seeding densities see Appendix Table S1). […] The final DMSO concentration in each well was 0.2%. […] Eight wells per plate without library drug served as negative controls, and sixteen wells per plate containing 5 µM Staurosporine served as positive controls. Control plates not containing any drug were used to correct for incubation effects, and data quality was assessed by calculation of Z-prime of positive and negative controls according to1 Z-prime=1−3SDpos+3SDneg/[…] where SD is the standard deviation. […] Dose–response curves from the experimental and hypothetical data were compared, and shifts in AUC were used to describe combination effects (AUC∆ = AUChypothetical − AUCexperimental). […] Only combinations with R^2 > 0.8 in both conditions were considered in the synergy analysis.

[1] = ASPC1, read-out: pEC50 (converted)
[2] = AsPC-1, GEM high_Bliss (hypothetical data)
[3] = AsPC-1, GEM low_Bliss (hypothetical data)
[4] = AsPC-1, library drug 123.46 nM + GEM 10 nM
[5] = AsPC-1, library drug 123.46 nM + GEM 30 nM
[6] = AsPC-1, library drug 370.37 nM + GEM 10 nM
[7] = AsPC-1, library drug 370.37 nM + GEM 30 nM
[8] = AsPC-1, library drug 1111.11 nM + GEM 10 nM
[9] = AsPC-1, library drug 1111.11 nM + GEM 30 nM
[10] = AsPC-1, library drug 3333.33 nM + GEM 10 nM
[11] = AsPC-1, library drug 3333.33 nM + GEM 30 nM
[12] = AsPC-1, library drug 10000 nM + GEM 10 nM
[13] = AsPC-1, library drug 10000 nM + GEM 30 nM

Compound: Nc1ccn([C@@H]2O[C@H](CO)[C@@H](O)C2(F)F)c(=O)n1 [GEM, Gemcitabine]
- Reponse (AsPC-1, R1, 13.72 nM): 1567840
- Reponse (AsPC-1, R1, 41.15 nM): 1226120
- Reponse (AsPC-1, R1, 123.46 nM): 1025760
- Reponse (AsPC-1, R1, 370.37 nM): 921880
- Reponse (AsPC-1, R1, 1111.11 nM): 872680
- Reponse (AsPC-1, R1, 3333.33 nM): 849760
- Reponse (AsPC-1, R1, 10000 nM): 784080
- Reponse (AsPC-1, R2, 13.72 nM): 1654800
- Reponse (AsPC-1, R2, 41.15 nM): 1220360
- Reponse (AsPC-1, R2, 123.46 nM): 984000
- Reponse (AsPC-1, R2, 370.37 nM): 972200
- Reponse (AsPC-1, R2, 1111.11 nM): 963400
- Reponse (AsPC-1, R2, 10000 nM): 773560
- AUC (AsPC-1, GEM curve fit): 70.34
- Curve bottom (AsPC-1, GEM curve fit): 0.46
- Curve effect size (AsPC-1, GEM curve fit): 0.55
- Curve slope (AsPC-1, GEM curve fit): 1.15
- Curve top (AsPC-1, GEM curve fit): 1.04
- GEM low only (raw) (AsPC-1, luminescence signal, plate mean, GEM 10 nM): 1700020
- GEM high only (raw) (AsPC-1, luminescence signal, plate mean, GEM 30 nM): 1564215
- EC50 (ASPC1, read-out: EC50,GEM): ≥ 10 nM
- EC50 (ASPC1, read-out: EC50): 27.1 nM
- EC50 [1]: 26.9 nM

- EC50 (ASPC1, read-out: EC50): 16500 nM
- EC50 [1]: 16600 nM
Compound: CCN1CCN(Cc2ccc(Nc3ncc(F)c(-c4cc(F)c5nc(C)n(C(C)C)c5c4)n3)nc2)CC1 [Abemaciclib]
- AUC (AsPC-1, GEM high): 87.77%
- Curve bottom (AsPC-1, GEM high): 0.63
- Curve effect size (AsPC-1, GEM high): 0.23
- Curve slope (AsPC-1, GEM high): 0.52
- Curve top (AsPC-1, GEM high): 0.85
- AUC [2]: 82.66%
- Curve bottom [2]: -0.27
- Curve effect size [2]: 0.57
- Curve slope [2]: 0.36
- Curve top [2]: 0.8
- AUC (AsPC-1, GEM low): 89.92%
- Curve bottom (AsPC-1, GEM low): 0.62
- Curve effect size (AsPC-1, GEM low): 0.28
- Curve slope (AsPC-1, GEM low): 1.21
- Curve top (AsPC-1, GEM low): 0.86
- AUC [3]: 82.59%
- Curve bottom [3]: -0.23
- Curve effect size [3]: 0.57
- Curve slope [3]: 0.36
- Curve top [3]: 0.87
- Library drug only (ratio) (AsPC-1, library drug 123.46 nM): 0.76
- Library drug only (ratio) (AsPC-1, library drug 370.37 nM): 0.72
- Library drug only (ratio) (AsPC-1, library drug 1111.11 nM): 0.63
- Library drug only (ratio) (AsPC-1, library drug 3333.33 nM): 0.64
- Library drug only (ratio) (AsPC-1, library drug 10000 nM): 0.33
- Library drug + GEM low (ratio) [4]: 0.80
- Library drug + GEM high (ratio) [5]: 0.73
- Library drug + GEM low (ratio) [6]: 0.68
- Library drug + GEM high (ratio) [7]: 0.65
- Library drug + GEM low (ratio) [8]: 0.63
- Library drug + GEM high (ratio) [9]: 0.65
- Library drug + GEM low (ratio) [10]: 0.67
- Library drug + GEM high (ratio) [11]: 0.67
- Library drug + GEM low (ratio) [12]: 0.59
- Library drug + GEM high (ratio) [13]: 0.64
- Bliss_Library drug + GEM low (ratio) [4]: 0.69
- Bliss_Library drug + GEM high (ratio) [5]: 0.63
- Bliss_Library drug + GEM low (ratio) [6]: 0.65
- Bliss_Library drug + GEM high (ratio) [7]: 0.60
- Bliss_Library drug + GEM low (ratio) [8]: 0.57
- Bliss_Library drug + GEM high (ratio) [9]: 0.52
- Bliss_Library drug + GEM low (ratio) [10]: 0.58
- Bliss_Library drug + GEM high (ratio) [11]: 0.53
- Bliss_Library drug + GEM low (ratio) [12]: 0.30
- Bliss_Library drug + GEM high (ratio) [13]: 0.27
- Library drug only (raw) (AsPC-1, luminescence signal, library drug 123.46 nM): 1429160
- Library drug + GEM low (raw) (AsPC-1, luminescence signal, library drug 123.46 nM + GEM 10 nM): 1506080
- Library drug + GEM high (raw) (AsPC-1, luminescence signal, library drug 123.46 nM + GEM 30 nM): 1369120
- Library drug only (raw) (AsPC-1, luminescence signal, library drug 370.37 nM): 1356440
- Library drug + GEM low (raw) (AsPC-1, luminescence signal, library drug 370.37 nM + GEM 10 nM): 1276520
- Library drug + GEM high (raw) (AsPC-1, luminescence signal, library drug 370.37 nM + GEM 30 nM): 1223760
- Library drug only (raw) (AsPC-1, luminescence signal, library drug 1111.11 nM): 1177560
- Library drug + GEM low (raw) (AsPC-1, luminescence signal, library drug 1111.11 nM + GEM 10 nM): 1187000
- Library drug + GEM high (raw) (AsPC-1, luminescence signal, library drug 1111.11 nM + GEM 30 nM): 1214720
- Library drug only (raw) (AsPC-1, luminescence signal, library drug 3333.33 nM): 1196040
- Library drug + GEM low (raw) (AsPC-1, luminescence signal, library drug 3333.33 nM + GEM 10 nM): 1253360
- Library drug + GEM high (raw) (AsPC-1, luminescence signal, library drug 3333.33 nM + GEM 30 nM): 1251960
- Library drug only (raw) (AsPC-1, luminescence signal, library drug 10000 nM): 618520
- Library drug + GEM low (raw) (AsPC-1, luminescence signal, library drug 10000 nM + GEM 10 nM): 1109040
- Library drug + GEM high (raw) (AsPC-1, luminescence signal, library drug 10000 nM + GEM 30 nM): 1201080
- AUC (AsPC-1, no GEM (single drug)): 82.59%
- Curve bottom (AsPC-1, no GEM (single drug)): -0.27
- Curve effect size (AsPC-1, no GEM (single drug)): 0.57
- Curve slope (AsPC-1, no GEM (single drug)): 0.36
- Curve top (AsPC-1, no GEM (single drug)): 0.97
